# System: SARS-CoV-2
# Assay type: cell-based
# Conditions: 1-hour contact at 22 ± 2° C., cleanser 100%, ethanol 70%
smiles,measurement,setting,value
CCO [Ethanol],LRV (log reduction value) compared to the virus control,<1 log reduction not considered active,>4.3
same,Virus Titer,"virus control titer 5.0, limit of detection 0.7",<0.7 log10 CCID50 of virus per 0.1 mL
